Results published in ChEMBL document CHEMBL1136079, “Molecular design, synthesis, and structure-Activity relationships leading to the potent and selective p56(lck) inhibitor BMS-243117” (Bioorg Med Chem Lett, 2003).

target: Tyrosine-protein kinase Lck (Homo sapiens, UniProt P06239); test: In vitro inhibition of phosphorylation of an exogenous substrate by human p56 Lck tyrosine kinase expressed as a His-tagged protein in insect cells using a baculovirus expression system; conditions: not given
Sequence (P06239 whole entry): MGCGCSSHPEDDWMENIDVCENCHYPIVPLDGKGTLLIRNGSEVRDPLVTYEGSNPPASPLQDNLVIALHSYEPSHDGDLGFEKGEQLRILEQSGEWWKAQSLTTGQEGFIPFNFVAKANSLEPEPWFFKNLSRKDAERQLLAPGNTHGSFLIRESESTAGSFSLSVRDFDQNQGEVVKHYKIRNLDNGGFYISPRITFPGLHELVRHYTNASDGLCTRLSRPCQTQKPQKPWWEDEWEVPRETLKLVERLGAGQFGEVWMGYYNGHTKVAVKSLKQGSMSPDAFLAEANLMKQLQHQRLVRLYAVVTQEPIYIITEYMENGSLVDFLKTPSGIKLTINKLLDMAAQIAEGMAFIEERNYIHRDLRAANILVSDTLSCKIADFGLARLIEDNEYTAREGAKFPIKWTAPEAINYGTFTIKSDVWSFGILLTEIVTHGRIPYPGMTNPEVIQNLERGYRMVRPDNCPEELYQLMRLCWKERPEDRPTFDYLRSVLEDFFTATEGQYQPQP

Structure (SMILES) | IC50 [nM]
Cc1cc(C)c(NC(=O)c2ccc3nc(NC(=O)NC(C)(C)C)sc3c2)c(C)c1 | 70
Cc1cc(C)c(NC(=O)c2ccc3nc(NC(=O)OC(C)(C)C)sc3c2)c(C)c1Br | > 12500
Cc1cc(CO)cc(C)c1NC(=O)c1ccc2nc(NC(=O)OC(C)(C)C)sc2c1 | 310
Cc1cccc(Cl)c1NC(=O)c1ccc2nc(NC(=O)NC3CC3)sc2c1 | 90
Cc1cccc(Cl)c1NC(=O)c1ccc2nc(NC(=O)NCc3ccco3)sc2c1 | 39
Cc1cccc(C)c1NC(=O)c1ccc2nc(NC(=O)OC(C)(C)C)sc2c1 | 90
Cc1cc(C)c(NC(=O)c2ccc3nc(NC(=O)NC4CC4)sc3c2)c(C)c1 | 300
Cc1cc(C)c(NC(=O)c2ccc3nc(NC(=O)C(C)C)sc3c2)c(C)c1 | 700
Cc1cc(C)c(NC(=O)c2ccc3nc(N)oc3c2)c(C)c1 | 23000
Cc1cc(C)c(NC(=O)c2cccc3sc(NC(=O)OC(C)(C)C)nc23)c(C)c1 | > 12500
Cc1cc(C)c(NC(=O)c2ccc3nc(NC(=O)OC(C)(C)C)sc3c2)c(C)c1 | 290
Cc1cccc(C)c1NC(=O)c1ccc2nc(NC(=O)C(C)C)sc2c1 | 1800
Cc1cccc(C)c1NC(=O)c1ccc2nc(NC(=O)C3CC3C)sc2c1 (configuration not stated) | 11
CCC(NC(=O)Nc1nc2ccc(C(=O)Nc3c(C)cccc3Cl)cc2s1)c1ccccc1 (configuration not stated) | 19
Cc1cccc(Cl)c1NC(=O)c1ccc2nc(NC(=O)Nc3ncccn3)sc2c1 | > 3130
Cc1ccccc1CC(=O)Nc1nc2ccc(C(=O)Nc3c(C)cccc3Cl)cc2s1 | 565
CC(=O)c1cccc(O)c1NC(=O)c1ccc2nc(NC(=O)OC(C)(C)C)sc2c1 | > 12500
Cc1cccc(Cl)c1NC(=O)c1ccc2nc(NC(=O)NCCN(C)C)sc2c1 | 30
CCCCNC(=O)Nc1nc2ccc(C(=O)Nc3c(C)cc(C)cc3C)cc2s1 | 330
Cc1cc(C)c(NC(=O)c2ccc3nc(NC(=O)NCc4ccccc4)sc3c2)c(C)c1 | 1730
Cc1cccc(Cl)c1NC(=O)c1ccc2nc(NC(=O)Nc3ccccn3)sc2c1 | 2010

Structure (SMILES) | IC50 [nM]
Cc1cc(C)c(NC(=O)c2sc(N)nc2C)c(C)c1 | 3200
Cc1cc(C)c(NC(=O)c2cc(C)c3nc(NC(=O)OC(C)(C)C)sc3c2)c(C)c1 | 5600
Cc1cccc(Cl)c1NC(=O)c1ccc2nc(NC(=O)NCCC3CCCN3C)sc2c1 (configuration not stated) | 7
Cc1cc(C)c(NC(=O)c2ccc3nc(NC(=O)OC(C)(C)C)sc3c2)c(Br)c1 | 200
Cc1cc(C)c(NC(=O)c2ccc3[nH]c(NC(=O)OC(C)(C)C)nc3c2)c(C)c1 | 3230
Cc1cccc(Cl)c1NC(=O)c1ccc2nc(NC(=O)OC(C)(C)C)sc2c1 | 70
Cc1cc(C)c(NC(=O)c2ccc3nc(NC(=O)OC(C)(C)C)oc3c2)c(C)c1 | 7250
Cc1cccc(Cl)c1NC(=O)c1ccc2nc(NC(=O)NCc3ccc(F)cc3)sc2c1 | 87
Cc1cc(C)c(NC(=O)c2ccc3nc(NC(=O)c4ccccc4)sc3c2)c(C)c1 | > 12500
Cc1cc(C)c(NC(=O)c2sc(NC(=O)OC(C)(C)C)nc2C)c(C)c1 | 3000
CCC(C)(C)NC(=O)Nc1nc2ccc(C(=O)Nc3c(C)cccc3C)cc2s1 | 80
Cc1cc(C)c(NC(=O)c2ccc3nc(N)sc3c2)c(C)c1 | 15000
Cc1cccc(Cl)c1NC(=O)c1ccc2nc(NC(=O)NC3CCCC3)sc2c1 | 45
Cc1cccc(C)c1NC(=O)c1ccc2nc(NC(=O)NC(C)(C)C)sc2c1 | 100
Cc1cccc(Cl)c1NC(=O)c1ccc2nc(NC(=O)NC(C)(C)C)sc2c1 | 4
Cc1cccc(Br)c1NC(=O)c1ccc2nc(NC(=O)OC(C)(C)C)sc2c1 | 4270
Cc1cccc(Cl)c1NC(=O)c1ccc2nc(NC(=O)C3CCC3)sc2c1 | 666
Cc1cc(Br)ccc1NC(=O)c1ccc2nc(NC(=O)OC(C)(C)C)sc2c1 | > 12500
COc1cccc(OC)c1NC(=O)c1ccc2nc(NC(=O)OC(C)(C)C)sc2c1 | > 12500
Cc1cc(C)c(NC(=O)c2ccc3sc(NC(=O)OC(C)(C)C)nc3c2)c(C)c1 | > 12500
Cc1cc(Br)cc(C)c1NC(=O)c1ccc2nc(NC(=O)OC(C)(C)C)sc2c1 | 110

Structure (SMILES) | IC50 [nM]
Cc1cccc(Cl)c1NC(=O)c1ccc2nc(NC(=O)C3CC3)sc2c1 | 9
COC(=O)c1cc(C)c(NC(=O)c2ccc3nc(NC(=O)OC(C)(C)C)sc3c2)c(C)c1 | 3120
Cc1cccc(Cl)c1NC(=O)c1ccc2nc(NC(=O)Nc3ccc(F)cc3)sc2c1 | 123
Cc1cccc(C)c1NC(=O)c1ccc2nc(NC(=O)C3CC3)sc2c1 | 15
Cc1cccc(Cl)c1NC(=O)c1ccc2nc(NC(=O)C3CCCO3)sc2c1 (configuration not stated) | 272
Cc1cc(C)c(NC(=O)c2ccc3nc(NC(=O)C4CC4)sc3c2)c(C)c1 | 20
Cc1cc(C)c(NC(=O)c2ccc3nc(NC(=O)OC(C)(C)C)sc3c2)c(Br)c1C | > 12500
Cc1cc(C)c(NC(=O)c2ccc3[nH]c(N)nc3c2)c(C)c1 | > 12500
Cc1cc(C)c(NC(=O)c2ccc3nc(N)sc3n2)c(C)c1 | > 12500
Cc1ccc(C(C)C)c(C)c1NC(=O)c1ccc2nc(NC(=O)OC(C)(C)C)sc2c1 | > 12500
Cc1cccc(Cl)c1NC(=O)c1ccc2nc(NC(=O)NC3CC(C)(C)NC(C)(C)C3)sc2c1 | 4
Cc1cc(C)c(NC(=O)c2cccc3nc(NC(=O)OC(C)(C)C)sc23)c(C)c1 | > 12500
CCC(C)(C)NC(=O)Nc1nc2ccc(C(=O)Nc3c(C)cccc3Cl)cc2s1 | 55
Cc1cc(C)c(NC(=O)c2ccc3nc(NC(=O)OC(C)(C)C)sc3n2)c(C)c1 | > 12500
Cc1cccc(CCO)c1NC(=O)c1ccc2nc(NC(=O)OC(C)(C)C)sc2c1 | > 12500
Cc1cc(C)c(NC(=O)c2ccc3nc(NC(=O)OC(C)(C)C)sc3c2Cl)c(C)c1 | 4400
Cc1cccc(C)c1NC(=O)c1ccc2nc(NC(=O)NC3CC3)sc2c1 | 90
Cc1cc(C)c(NC(=O)c2cc3sc(NC(=O)OC(C)(C)C)nc3cc2Cl)c(C)c1 | > 12500
COc1cc(C(=O)Nc2c(C)cc(C)cc2C)nc2sc(NC(=O)OC(C)(C)C)nc12 | > 12500

tested on: not listed separately; test: Inhibition of anti-CD3, anti-CD28 induced PBL T-cell proliferation; conditions: Homo sapiens

Structure (SMILES) | IC50 [nM]
Cc1cccc(Cl)c1NC(=O)c1ccc2nc(NC(=O)NCCC3CCCN3C)sc2c1 (configuration not stated) | 960
Cc1cccc(Cl)c1NC(=O)c1ccc2nc(NC(=O)NC(C)(C)C)sc2c1 | 1100
Cc1cccc(Cl)c1NC(=O)c1ccc2nc(NC(=O)NC3CC(C)(C)NC(C)(C)C3)sc2c1 | 2800
Cc1cccc(Cl)c1NC(=O)c1ccc2nc(NC(=O)C3CC3C)sc2c1 (configuration not stated) | 1580
Cc1cccc(Cl)c1NC(=O)c1ccc2nc(NC(=O)C3CC3CN(C)C)sc2c1 (trans isomer) | 3530
Cc1cccc(Cl)c1NC(=O)c1ccc2nc(NC(=O)C3CC3CO)sc2c1 (trans isomer) | 1450
